Measured values published in patent US9862697B2, “pH-sensitive fluorescent sensors for biological amines” (The Curators of the University of Missouri, priority 2013, dated 2018).
Marks after values point to notes of the source that are not given here. One block for each compound: values may come before it.

Key:
[1] = pH titration of sensor (absorbance and fluorescence monitored), pKa; assay type: physicochemical; conditions: buffered solution of the sensor; unbound sensor; pH and fluorescence intensity data fit to a pH isotherm
Method: (§1) The spectroscopic properties of several exemplary inventive sensors have been examined, along with the starting compound 1, as 7-hydroxycoumarins are well known for their pH-sensitivity. First, the acidity of the sensors was discerned by performing pH titrations where aliquots of aqueous HCl were added to a buffered solution of the sensor and the absorbance and fluorescence were monitored. The pKa of the pH-sensitive unit is related to the donating ability of the sulfonamide substituent. ES517 has a dimethylamino-substituent on the sulfonamide which is the best electron-donor into the sulfonyl motif. This makes deprotonation of the N—H proton located at the 7-position of the coumarin core the least favorable and therefore the least acidic. The pH and fluorescence intensity data were fit to a pH isotherm and the pKa was determined to be 6.3. As the donating ability of the sulfonamide substituent into the sulfonyl motif worsened, the acidity of the N—H proton located at the 7-position of the coumarin core increased. The aromatic substituents are the least electron donating substituents into the sulfonyl motif which explains the greater acidity. By using a single coupling reaction, the pKa of the sensor may be tuned to fit the parameters of the experiment.

[2] = Spectroscopic properties of unbound sensors; assay type: physicochemical; design: λmax (GH) / λmax (G-): unit not given here; conditions: for λem (ex: 488 nm): excitation 488 nm; for λmax (G-) / λmax (GH): unbound sensor; for λmax (G-): deprotonated form G-; for λmax (GH): protonated form GH
Method: as §1
(§2) Table 1 summarizes the spectroscopic properties of the tested compounds in pH varying environments, mimicking the vesicular and synaptic cleft conditions.

[3] = Fluorescence at pH 7.4 vs 5.0 of sensor saturated with glutamate
Method: Next, the sensor was saturated with 300 mM glutamate in order to mimic vesicular conditions. The fluorescence intensity of the bound complex was then monitored between the pH values of 5 and 7.4, the acidities associated with the synaptic vesicle and synaptic cleft, respectively. An excitation wavelength of 488 nm was used because it is far enough to the red to ensure that only the bound, deprotonated sensor was excited. It is also a common wavelength used in fluorescence microscopy cell studies. The fluorescence intensity increased for all sensors upon basification from pH 5 to 7.4, however the sensors with the highest pKa values gave the greatest enhancements.
as §2

[4] = Binding study (fluorescence titration) of ES517 with glycine
[5] = pKa and absorbance of the bound sensor (ES517 saturated with glutamate) over a wide pH range; assay type: physicochemical
Source text: ES517 was saturated with glutamate and the spectroscopic properties measured over a wide pH range. The protonated form of the bound sensor (FIG. 4, structure B) absorbed at 368 nm. […] The 428 nm band was assigned to the unbound deprotonated form of the sensor (structure C). The 458 nm band therefore represents the bound, deprotonated sensor (structure D). The plot of pH vs. intensity was fit to a pH isotherm and the pKa determined to be 6.3.

[6] = Binding study (fluorescence titration) of ES517 with serotonin
[7] = Binding study (fluorescence titration) of ES517 with GABA
[8] = Binding study (fluorescence titration) of ES517 with norepinephrine
[9] = Binding study (fluorescence titration) of ES517 with glutamate
Method: While low, this binding constant is believed to be preferred for reversible binding due to the high millimolar concentration of glutamate in a vesicle (˜300 mM).

[10] = Fluorescence at pH 7.4 vs 5.0 of ES517 saturated with GABA; conditions: ES517 20 μM saturated with 300 mM GABA
Source text: (§3) The ES517 was further analyzed for binding and spectroscopic properties with the common neurotransmitters other than glutamate released upon exocytosis. […] The aromatic neurotransmitters dampened the fluorescence turn-on response of the inventive sensors due to the electron-rich nature of catecholamines (norepinephrine and dopamine) and indoleamines (serotonin).

[11] = Fluorescence at pH 7.4 vs 5.0 of ES517 saturated with dopamine; conditions: ES517 20 μM saturated with 100 mM dopamine
Source text: as §3

[12] = Fluorescence at pH 7.4 vs 5.0 of ES517 saturated with norepinephrine; conditions: ES517 20 μM saturated with 100 mM norepinephrine
Source text: as §3

[13] = Fluorescence at pH 7.4 vs 5.0 of ES517 saturated with glycine; conditions: ES517 20 μM saturated with 300 mM glycine
Source text: as §3

[14] = Binding study (fluorescence titration) of ES517 with dopamine
[15] = sensor saturated with 0.3M glutamate, intensities monitored at pH 5.0 and 7.4
[16] = ES517 20 μM, buffered, pH 7.4, ±10% error
[17] = fluorescence enhancement upon binding at pH 7.4, λem = 517 nm

- pKa [1]: 5.9
- λem (ex: 488 nm) [2]: 489 nm
- λmax (G-) [2]: 420
- λmax (GH) [2]: 365
SMILES: CS(=O)(=O)Nc1ccc2c(-c3ccccc3)c(C=O)c(=O)oc2c1
- IpH 7.4/IpH 5 [3, 15]: 5.5

- pKa [1]: 5.2
- λem (ex: 488 nm) [2]: 494 nm
- λmax (G-) [2]: 416
- λmax (GH) [2]: 366
SMILES: O=Cc1c(-c2ccccc2)c2ccc(NS(=O)(=O)c3cccs3)cc2oc1=O
- IpH 7.4/IpH 5 [3, 15]: 2.5

- pKa [1]: 5.8
- λem (ex: 488 nm) [2]: 468 nm
- λmax (G-) [2]: 420
- λmax (GH) [2]: 368
SMILES: O=Cc1c(-c2ccccc2)c2ccc(O)cc2oc1=O
- IpH 7.4/IpH 5 [3, 15]: 3.3

- Ka [4, 16]: 9.2 M⁻¹
- Isat/I0 [4, 17]: 25
- absorbance of protonated form of the bound sensor (structure B) [5]: 368 nm
- absorbance band of bound, deprotonated sensor (structure D) ([5]; upon deprotonation): 458 nm
- absorbance band of unbound deprotonated form of the sensor (structure C) ([5]; upon deprotonation): 428 nm
- Ka [6, 16]: 54 M⁻¹
- Isat/I0 [6, 17]: 0.5
- Ka [7, 16]: 8.3 M⁻¹
- Isat/I0 [7, 17]: 27
- pKa [1]: 6.3
- Ka [8, 16]: 49 M⁻¹
- Isat/I0 [8, 17]: 14
- Ka ([9]; glutamate, ES517 20 μM, 50 mM bis-tris propane, 50 mM Na2S2O3, 1% DMSO, pH 7.4, ±10% error): 8.6 M⁻¹
- Isat/I0 ([9]; glutamate, fluorescence enhancement upon binding at pH 7.4, Isat from theoretical max of binding isotherm, λem = 517 nm): 12
- fluorescence enhancement upon binding to glutamate ([9]; titration with glutamate, excitation 488 nm): 12 fold
- λem (ex: 488 nm) [2]: 498 nm
- λmax (G-) [2]: 419
- λmax (GH) [2]: 368
- Ka [14, 16]: 55 M⁻¹
- Isat/I0 [14, 17]: 10
SMILES: CN(C)S(=O)(=O)Nc1ccc2c(-c3ccccc3)c(C=O)c(=O)oc2c1 [ES517]
- IpH 7.4/IpH 5 [10]: 11 ^d
- IpH 7.4/IpH 5 [11]: 5.5 ^e
- IpH 7.4/IpH 5 [12]: 5.3 ^e
- IpH 7.4/IpH 5 [13]: 10 ^d
- IpH 7.4/IpH 5 ([3]; ES517 20 μM saturated with 300 mM glutamate, fluorescence at pH 7.4 vs. 5.0): 12^d
- IpH 7.4/IpH 5 [3, 15]: 12
